Laboratory results published in ChEMBL document CHEMBL5131394, “Structure-activity and mechanistic studies of non-peptidic inhibitors of the PLK1 polo box domain identified through REPLACE” (Eur J Med Chem, 2022).

Legend:
[1] = biological target: T1, Serine/threonine-protein kinase PLK1 (Homo sapiens, UniProt P53350); assay: Binding affinity to recombinant human N-terminal GST-tagged PLK1-PBD (367 to 603 end residue) expressed in Escherichia coli using MAGPMQS[pT]PLNGAKK as substrate incubated for 45 mins by fluorescence polarization assay
PC-3 [2] = assay: Antiproliferative activity against human PC-3 cells assessed as cell viability measured after 72 hrs by MTT assay; type: functional, cell-based; conditions: PC-3, 72 h
[3] = Antiproliferative activity against human RPE cells expressing wild-type PLK1 assessed as reduction in cell viability measured after 72 hrs by MTT assay; type: functional, cell-based
A549 = assay: Antiproliferative activity against human A549 cells assessed as cell viability measured after 72 hrs by MTT assay; type: functional, cell-based; conditions: A549, 72 h
[4] = Antiproliferative activity against human RPE cells expressing PLK1 C67V mutant assessed as reduction in cell viability measured after 72 hrs by MTT assay; type: functional, cell-based
[5] = Antiproliferative activity against human HCT116-p53-null cells assessed as cell viability measured after 72 hrs by MTT assay; type: functional, cell-based
HeLa = assay: Antiproliferative activity against human HeLa cells assessed as cell viability measured after 72 hrs by MTT assay; type: functional, cell-based
[6] = biological target: T1, Serine/threonine-protein kinase PLK1; assay: Binding affinity to full length PLK1 in human PC-3 cells assessed as stabilized protein incubated for 2 hrs followed by aggregation temperature at 56.2 degC by […] analysis; type: cell-based
[7] = Antiproliferative activity against human p53HCT116 cells assessed as cell viability measured after 72 hrs by MTT assay; type: functional, cell-based; conditions: p53HCT116, 72 h
PC-3 [8] = assay: Induction of mitotic arrest in human PC-3 cells assessed as accumulation of cells at G2/M phase; type: functional

T1 sequence (P53350 whole entry): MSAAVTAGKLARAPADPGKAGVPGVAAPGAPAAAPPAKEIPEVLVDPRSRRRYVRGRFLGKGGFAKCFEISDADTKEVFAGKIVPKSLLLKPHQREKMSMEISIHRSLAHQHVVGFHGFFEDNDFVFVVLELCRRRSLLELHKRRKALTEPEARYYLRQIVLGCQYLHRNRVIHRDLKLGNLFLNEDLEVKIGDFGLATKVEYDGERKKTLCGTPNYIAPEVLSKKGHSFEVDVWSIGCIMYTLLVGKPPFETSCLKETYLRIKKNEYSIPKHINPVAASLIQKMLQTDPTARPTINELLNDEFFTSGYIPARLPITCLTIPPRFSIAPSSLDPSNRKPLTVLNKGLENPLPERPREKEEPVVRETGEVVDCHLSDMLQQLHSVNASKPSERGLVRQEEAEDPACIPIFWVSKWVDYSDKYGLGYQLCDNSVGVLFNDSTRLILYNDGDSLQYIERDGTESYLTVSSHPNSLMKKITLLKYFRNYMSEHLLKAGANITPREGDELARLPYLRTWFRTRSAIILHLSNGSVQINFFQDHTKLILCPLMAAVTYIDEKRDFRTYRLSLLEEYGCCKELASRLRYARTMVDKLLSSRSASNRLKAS

| SMILES | IC50 [1] | other results |
| --- | --- | --- |
| CCCCCc1ccc(C(=O)Nc2ccccc2C(=O)O)cc1 | 224 µM |  |
| CCCCCCCCc1ccc(CCNc2ccccc2C(=O)O)cc1 | 118 µM |  |
| CCCCCCCCc1ccc(C(=O)Nc2c(O)cccc2C(=O)O)cc1 | 12 µM |  |
| CCCCCCCCc1ccc(CNc2ccccc2C(=O)O)cc1 | 9.8 µM |  |
| CCCCCCCCc1ccc(CNc2ccc(C)cc2C(=O)O)cc1 | > 600 µM |  |
| CCCCCCCCc1ccc(CNc2cccc(CC)c2)cc1 | > 600 µM |  |
| CCCCCCCCCCCCc1ccc(C(=O)Nc2ccccc2C(=O)O)cc1 |  | IC50 (PC-3 [2]): 14 µM |
| CCCCCCCCc1ccc(CNc2cccc(OP(=O)(O)O)c2)cc1 | > 600 µM |  |
| CCCCCCCCc1ccc(C(=O)Nc2ccccc2[N+](=O)[O-])cc1 | > 600 µM |  |
| CCCCCCCCc1ccc(C(=O)Nc2ccccc2C(=O)O)cc1 |  | IC50 [3]: 33 µM; IC50 (A549): 2.8 µM; IC50 [4]: 25.9 µM; IC50 [5]: 8 µM |
| CCCCCCCCc1ccc(C(=O)Nc2ccccc2S(N)(=O)=O)cc1 | 259 µM |  |
| CCCCCCCCc1ccc(C(=O)Nc2ccccc2B(O)O)cc1 | > 600 µM |  |
| CCCCCCCCc1ccc(C(=O)Nc2ccc(OC)cc2C(=O)O)cc1 | 5.9 µM | IC50 (HeLa): 8 µM |
| CCCCCCCCc1ccc(C(=O)Nc2ccc(C)cc2C(=O)O)cc1 | 2.2 µM | IC50 [3]: 13.4 µM; EC50 [6]: 820 nM; IC50 [7]: 17.4 µM; IC50 (A549): 5.1 µM; IC50 (PC-3 [2]): 16.3 µM; IC50 [4]: 12.6 µM; IC50 [5]: 10 µM |
| CCCCCCCCc1ccc(C(=O)Nc2cccc(OC)c2C(=O)O)cc1 | 29.6 µM |  |
| CCCCCCCCc1ccc(C(=O)Nc2cccc([N+](=O)[O-])c2C(=O)O)cc1 | 6.1 µM |  |
| CCCCCCCCc1ccc(C(=O)Nc2cccc(F)c2C(=O)O)cc1 | 11.1 µM | IC50 [3]: 8.79 µM; IC50 (A549): 2.9 µM; IC50 (PC-3 [2]): 11.6 µM; IC50 [4]: 9.1 µM; IC50 [5]: 10 µM |
| CCCCCCCCc1ccc(C(=O)Nc2cccc(O)c2C(=O)O)cc1 | 7.9 µM |  |
| CCCCc1ccc(C(=O)Nc2ccccc2C(=O)O)cc1 | > 600 µM |  |
| CCCCCCCCc1ccc(C(=O)Nc2cc(F)cc(F)c2C(=O)O)cc1 | 30.6 µM |  |
| CCCCCCCCc1ccc(CNc2cccc(F)c2C(=O)O)cc1 | 18.8 µM |  |
| CCCCCCCCc1ccc(CNc2cc(C)ccc2C(=O)O)cc1 | 21.7 µM |  |
| CCCCCCCCc1ccc(C(=O)Nc2ccccc2C(=O)OCC)cc1 | > 600 µM | IC50 (HeLa): > 100 µM; IC50 (PC-3 [2]): > 100 µM |
| CCCCCCCCc1ccc(C(=O)Nc2cccc(C(F)(F)F)c2C(=O)O)cc1 | 29.4 µM |  |
| CCCCCCCCc1ccc(C(=O)Nc2cccc(OP(=O)(O)O)c2)cc1 | 98.3 µM |  |
| CCCCCCCCc1ccc(C(=O)Nc2cccc(Cl)c2C(=O)O)cc1 | 25.3 µM |  |
| CCCCCCCCc1ccc(C(=O)Nc2cc(C)ccc2C(=O)O)cc1 | 4 µM | IC50 [7]: 24.2 µM; IC50 (A549): 3.5 µM; IC50 (PC-3 [2]): 18.8 µM; IC50 [5]: 11.4 µM |
| CC[C@@H]1C(=O)N(C)c2cnc(Nc3ccc(C(=O)NC4CCN(C)CC4)cc3OC)nc2N1C1CCCC1 [BI-2536] |  | Activity (PC-3 [8]): >75% |
